“Also recorded” adds a separate entry of the source. Where two headings read alike, the source gives them in different places.
Legend:
α-syn fibrils [1] = target: T1, α-syn fibrils (Homo sapiens, UniProt P37840); assay: α-Synuclein fibril/ligand saturation binding assay; conditions: for Selectivity α-syn v/s Aβ: from Kd Aβ and Kd α-syn; for selectivity for α-syn fibrils compared with amyloid-β (Aβ) and tau fibrils: abstract
Aβ (1–40) fibrils = Aβ (1–40) fibrils (Homo sapiens, UniProt P05067); assay: Aβ fibril/ligand saturation binding assay
[2] = Absorption/emission maxima and fluorescence quantum yield of free ligand in PBS; assay type: physicochemical; conditions: for Absmax / Emmax: free ligand in PBS
α-syn fibrils [3] = target: T1, α-syn fibrils; assay: Fluorescent properties of ligand-α-syn fibril complex; assay type: physicochemical
Aβ fibrils [4] = target: T2, Aβ fibrils (Homo sapiens, UniProt P05067); assay: Fluorescent properties of ligand-Aβ fibril complex; assay type: physicochemical
[5] = target: tau fibrils (Tau-441, 2N4R) (Homo sapiens, UniProt P10636); assay: Tau fibril/ligand saturation binding assay; conditions: for α-syn versus tau binding selectivity: from Kd tau and Kd α-syn
[6] = target: Aβ plaques in human AD brain tissue (Homo sapiens, UniProt P05067); assay: Fluorescent staining of human AD brain tissue sections; conditions: cortical sections, co-stained with antibody 4G8
α-syn fibrils [7] = target: T1, α-syn fibrils; conditions: read-out: Kd α-syn; fibril saturation binding; cited from earlier work
Aβ fibrils [8] = target: T2, Aβ fibrils; conditions: read-out: Kd Aβ; fibril saturation binding; cited from earlier work
[9] = Kd α-syn, Table 1, synthetic α-syn fibrils 2.5 μM, 1 hour, mean ± SD (n = 3)
[10] = Kd α-syn, Table 3 and text, α-syn fibrils, saturation binding, mean ± SD (n = 3)

Chain of Aβ (1–40) fibrils (P05067 672-711): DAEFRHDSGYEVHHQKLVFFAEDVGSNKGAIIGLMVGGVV
T2 sequence (P05067 672-711): as above
Chain of tau fibrils (Tau-441, 2N4R) (P10636 1-441 isoform P10636-8): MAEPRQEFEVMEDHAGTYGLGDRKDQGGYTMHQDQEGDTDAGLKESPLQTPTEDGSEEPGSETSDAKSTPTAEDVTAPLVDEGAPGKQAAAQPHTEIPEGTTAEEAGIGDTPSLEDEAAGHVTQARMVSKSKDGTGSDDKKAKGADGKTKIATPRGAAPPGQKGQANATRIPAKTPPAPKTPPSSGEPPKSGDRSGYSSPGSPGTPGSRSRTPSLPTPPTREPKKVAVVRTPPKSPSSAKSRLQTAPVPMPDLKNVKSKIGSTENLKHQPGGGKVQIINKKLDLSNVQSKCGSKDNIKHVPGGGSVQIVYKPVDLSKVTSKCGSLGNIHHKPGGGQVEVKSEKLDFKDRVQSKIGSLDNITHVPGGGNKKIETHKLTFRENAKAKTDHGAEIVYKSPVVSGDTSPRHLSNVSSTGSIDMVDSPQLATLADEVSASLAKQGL
Chain of Aβ plaques in human AD brain tissue (P05067 672-711 limits assumed): as the sequence (P05067 672-711) above

Row | SMILES | Kd (α-syn fibrils [1]; [9]) | Kd (α-syn fibrils [1]; [10]) | Selectivity α-syn v/s Aβ (α-syn fibrils [1]) | Kd (Aβ (1–40) fibrils) | Fluorescence quantum yield Free ligand [2] | Absmax [2] | Emmax [2] | Absmax Ligand + α-syn (α-syn fibrils [3]) | Emmax Ligand + α-syn (α-syn fibrils [3]) | Fluorescence quantum yield Ligand + α-syn (α-syn fibrils [3]) | Absmax Ligand + Aβ (Aβ fibrils [4]) | Emmax Ligand + Aβ (Aβ fibrils [4]) | Fluorescence quantum yield Ligand + Aβ (Aβ fibrils [4]) | selectivity for α-syn fibrils compared with amyloid-β (Aβ) and tau fibrils (α-syn fibrils [1]) | Kd [5] | α-syn versus tau binding selectivity [5] | labeling of Aβ pathology in AD brain sections [6] | Kd (α-syn fibrils [7]) | Kd (Aβ fibrils [8]) | Kd (α-syn fibrils [1]; Kd α-syn (reported as no binding), α-syn fibrils, saturation binding)
1 | COc1cc(/C=C/C=C2C(=O)c3ccccc3C2=O)ccc1O [compound 20, (E)-2-(3-(4-Hydroxy-3-methoxyphenyl)allylidene)-1H-indene-1,3(2H)-dione] | 44.5 ± 6.1 nM | 44.5 ± 6.1 nM | 3.5 x | 154 ± 11.8 nM | 0.0061 | 402 | 572 | 440 | 603 | 0.0482 | 438 | 598 | 0.1419 | – | – | – | – | – | – | –
2 | COc1cc(/C=C/C=C2\CCc3ccccc3C2=O)ccc1O [compound 23, (E)-2-((E)-3-(4-Hydroxy-3-methoxyphenyl)allylidene)-3,4-dihydronaphthalen-1(2H)-one] | 85.1 ± 13.4 nM | 85.1 ± 13.4 nM | 1.7 x | 144 ± 13 nM | 0.0051 | 401 | 549 | 447 | 587 | 0.0763 | 454 | 584 | 0.1890 | – | – | – | – | – | – | –
3 | COc1cc(-c2ccc(/C=C3/Cc4ccccc4C3=O)s2)ccc1O [compound 39, (Z)-2-((5-(4-Hydroxy-3-methoxyphenyl)thiophen-2-yl)methylene)-2,3-dihydro-1H-inden-1-one] | 93.1 ± 13.8 nM | 93.1 ± 13.8 nM | 2.8 x | 257 ± 20.3 nM | 0.0031 | 403 | 575 | 439 | 589 | 0.0435 | 448 | 586 | 0.1377 | – | – | – | – | – | – | –
4 | CN(C)c1ccc(/C=C/C=C2\CCc3ccccc3C2=O)cc1 [compound 24, (E)-2-((E)-3-(4-(Dimethylamino)phenyl)allylidene)-3,4-dihydronaphthalen-1(2H)-one] | 97.6 ± 5.7 nM | 97.6 ± 5.7 nM | 1.7 x | 165 ± 7.1 nM | 0.0063 | 397 | 565 | 452 | 582 | 0.0668 | 435 | 585 | 0.1377 | – | – | – | – | – | – | –
5 | CN(C)c1ccc(/C=C/C=C2\Cc3ccccc3C2=O)cc1 [compound 9, (E)-2-((E)-3-(4-(Dimethylamino)phenyl)allylidene)-2,3-dihydro-1H-inden-1-one] | 38.4 ± 1.3 nM | 38.4 ± 1.3 nM | 4.1 x | 157 ± 5 nM | 0.0059 | 450 | 589 | 462 | 610 | 0.0805 | 460 | 609 | 0.1465 | – | – | – | – | – | – | –
6 | COc1cc(/C=C/C=C2\Cc3ccccc3C2=O)ccc1O [compound 8, (E)-2-((E)-3-(4-Hydroxy-3-methoxyphenyl)allylidene)-2,3-dihydro-1H-inden-1-one] | 9 ± 0.5 nM | 9 ± 0.5 nM | 15.6 x | 140 ± 4.2 nM | 0.0079 | 405 | 542 | 446 | 585 | 0.078 | 441 | 579 | 0.1363 | greater than 10 x | 388 ± 38.2 nM | 43 x | mostly dense core Aβ plaques in the ligand channel (column II) but not the finer aggregates composed of diffuse plaques; also recorded: highlights mostly dense core Aβ plaques | – | – | –
7 | O=C1/C(=C\c2ccc(-c3ccc(CO)cc3)s2)Cc2ccccc21 [compound 37, (Z)-2-((5-(4-(Hydroxymethyl)phenyl)thiophen-2-yl)methylene)-2,3-dihydro-1H-inden-1-one] | – | – | – | 393 ± 64.4 nM | 0.0063 | 431 | 524 | – | – | – | 446 | 556 | 0.1074 | – | – | – | – | – | – | –
8 | O=C(O)c1ccc(-c2ccc(/C=C/C=C3\Cc4ccc(O)cc4C3=O)cc2)cc1 [compound 32, 4'-((E)-3-((E)-6-Hydroxy-1-oxo-1,3-dihydro-2H-inden-2-ylidene)prop-1-en-1-yl)-[1,1'-biphenyl]-4-carboxylic acid] | – | 18.8 ± 4 nM | – | 491 ± 58.9 nM | 0.0104 | 392 | 563 | 448 | 586 | 0.1125 | 443 | 583 | 0.2498 | greater than 10 x | 579 ± 30.6 nM | 30.8 x | – | – | – | –
9 | O=C(O)c1ccc(-c2ccc(/C=C/C=C3C(=O)c4ccccc4C3=O)cc2)s1 [compound 35, (E)-5-(4-(3-(1,3-Dioxo-1,3-dihydro-2H-inden-2-ylidene)prop-1-en-1-yl)phenyl)thiophene-2-carboxylic acid] | 74.2 ± 14.3 nM | 74.2 ± 14.3 nM | 4.5 x | 337 ± 11.7 nM | 0.0097 | 414 | 556 | 425 | 601 | 0.0878 | 437 | 595 | 0.2058 | – | – | – | – | – | – | –
10 | COc1ncc(-c2ccc(/C=C3/Cc4ccccc4C3=O)s2)c(OC)n1 [compound 42, (Z)-2-((5-(2,4-Dimethoxypyrimidin-5-yl)thiophen-2-yl)methylene)-2,3-dihydro-1H-inden-1-one] | 92.9 ± 6.3 nM | 92.9 ± 6.3 nM | 2.7 x | 250 ± 37.1 nM | 0.0050 | 387 | 547 | 465 | 572 | 0.0596 | 478 | 581 | 0.1130 | – | – | – | – | – | – | –
11 | CN(C)c1ccc(-c2cc(-c3ccnc(Br)c3)[nH]n2)cc1 [[^11C]MODAG-001] | – | – | – | – | – | – | – | – | – | – | – | – | – | – | – | – | – | 0.6 ± 0.1 nM | 20 ± 10 nM | –
12 | COc1cc(-c2ccc(/C=C/C=C3\Cc4ccccc4C3=O)cc2)ccc1O [compound 29, (E)-2-((E)-3-(4'-Hydroxy-3'-methoxy-[1,1'-biphenyl]-4-yl)allylidene)-2,3-dihydro-1H-inden-1-one] | 66.7 ± 2 nM | – | 0.8 x | 52.5 ± 3.1 nM | 0.0052 | 397 | 551 | 428 | 583 | 0.0766 | 424 | 574 | 0.1543 | – | – | – | – | – | – | –
13 | CN(C)c1ccc(C=CC=C2C(=O)Oc3ccc(Br)cc3C2=O)cc1 [compound 28, 6-Bromo-3-(3-(4-(dimethylamino)phenyl)allylidene)chromane-2,4-dione] | > 2000 nM | – | – | – | – | 405 | – | – | – | – | – | – | – | – | – | – | – | – | – | ≥ 2000 nM
14 | O=C1/C(=C\c2cc(-c3cccnc3)cs2)Cc2ccccc21 [compound 47, (Z)-2-((4-(Pyridin-3-yl)thiophen-2-yl)methylene)-2,3-dihydro-1H-inden-1-one] | 333 ± 28.3 nM | – | – | – | – | 340 | 404 | – | – | – | – | – | – | – | – | – | – | – | – | –

From PMC8770581 (ChemMedChem, 2021)
